Read-outs that look alike come from different tables or passages of the source.
Assays:
Assay type in all cases: biochemical
CYP3A4 [1] = target: T1, CYP3A4 (Homo sapiens, UniProt P08684); assay: Determination of IC50 against CYP3A4 by measurement of inhibition of midazolam metabolism (human liver microsomes, 1-hydroxymidazolam by LC-MS/MS); design: 0.1 mg/mL human liver microsomes; conditions: 2 μM midazolam, 0.1 mg/mL human liver microsomes
Protocol: 3. Determination of IC50 Against CYP3A4 by Measurement of Inhibition of Midazolam Metabolism
(§1) This assay was performed using a standard 96 well plate design. […] The incubation substrate mix contains 2 μM midazolam, 0.1 mg/mL human liver microsomes, 1 mM NADPH, and potassium phosphate buffer (100 mM, pH 7.4). Quantitation of metabolite peak area ratio against internal standard is determined by LC-MS/MS analysis. The production of 1-hydroxymidazolam from midazolam metabolism is determined after incubation for eight minutes by comparison to a standard curve generated for the metabolite.
(§2) Samples were analyzed in the MRM mode using a Sciex API 3000 mass spectrometer (Applied Biosystems, Foster City, Calif.) with a Paradigm MS4 binary pump (Michrom BioResources Inc., Auburn, Calif.) and a LEAP CTC PAL autosampler (LEAP Technologies, Carrboro, N.C.). A Phenomenex Synergi, 4μ, Polar-RP, 10×2.0 mm column (Phenomenex, Torrance, Calif.) was used for separation with a mobile phase composition of: 0.1% formic acid in water (A) and: 0.1% formic acid in methanol (B). The following gradient was used: […]
(§3) The sample injection volume was 10 μL and flow was split post-column with 0.4 mL/min going to the mass spectrometer. Analysis was performed using the following API 3000 mass spectrometer settings: […]

CYP3A4 [2] = target: T1, CYP3A4; assay: Determination of compound Kiapp against recombinant CYP3A4 enzyme (BFC fluorescent substrate)
Protocol: 1. Determination of compound Kiapp
A determination of the Kiapp of the compounds of the invention against recombinant CYP3A4 enzyme was performed as follows. The assay was performed in a 100 mM sodium phosphate buffer pH 7.0, 5 mM TCEP and containing 2% dimethylformamide (final concentration) upon addition of substrate and inhibitor. A typical reaction for the determination of Kiapp values was carried at room temperature in a solid black Costar u-bottom 96-well polypropylene plate. In each well, recombinant CYP3A4 enzyme (5.5 nM or 8 nM, final concentration depending on the commercial source of the enzyme) was pre-incubated in the presence of the inhibitor for at least 30 minutes in the assay buffer. When pre-incubation was completed (˜30 min), the reaction was initiated by adding NADPH (200 uM, final concentration), and 7-benzyloxy-4-(trifluoromethyl)-coumarin (BFC) (5 uM, final concentration). The oxidation of the coumarin substrate was recorded by a 96-well plate reader POLARstar (BMG LABTECH, Offenburg, Germany).
The initial reaction velocities were measured during the first 5 min of the reaction when the release of the fluorescent product is linear with time, in the absence and in the presence of various concentrations of inhibitors. For non-partial & partial inhibitors, the Kiapp values were determined by using the equation for tight-binding inhibitor developed by Morrison, J F (Morrison J F. Biochim Biophys Acta. 1969, 185: 269-86) and by Szedlaseck S E et al. (Szedlascek, S. E., Ostafe, V., Serban, M., and Vlad, M.O. Biochem. J. 1988, 254:311-312), respectively.
The fluorescent substrate BFC was purchased from Sigma (St Louis, Mo.). Two commercial sources of recombinant enzymes were used in this study: recombinant CYP3A4−b5 enzyme (Baculosomes®) was purchased from Invitrogen (Carlsbad, Calif.) and the recombinant CYP3A4+b5 enzyme (Supersomes®) was purchased from BD Biosciences (Woburn, Mass.).

CYP3A4 [3] = target: T1, CYP3A4; assay: Determination of IC50 against CYP3A4 by measurement of inhibition of testosterone metabolism (human liver microsomes, 6-β-OH-testosterone by LC-MS/MS); design: 0.1 mg/mL human liver microsomes; conditions: read-out: IC50 (Testo.)
Protocol: 2. Determination of IC50 Against CYP3A4 by Measurement of Inhibition of Testosterone Metabolism
as §1, with “25” for “2”, “testosterone,” for “midazolam,”, “against an” for “against”, “6-β-OH-testosterone” for “1-hydroxymidazolam”, “testosterone” for “midazolam”, “metabolite” for “metabolite.”
as §2, §3

[4] = Baculo. enzyme preparation, read-out: Kiapp (BFC, Baculo.)
[5] = Super. enzyme preparation, read-out: Kiapp (BFC, Super.)

T1 sequence (P08684 whole entry): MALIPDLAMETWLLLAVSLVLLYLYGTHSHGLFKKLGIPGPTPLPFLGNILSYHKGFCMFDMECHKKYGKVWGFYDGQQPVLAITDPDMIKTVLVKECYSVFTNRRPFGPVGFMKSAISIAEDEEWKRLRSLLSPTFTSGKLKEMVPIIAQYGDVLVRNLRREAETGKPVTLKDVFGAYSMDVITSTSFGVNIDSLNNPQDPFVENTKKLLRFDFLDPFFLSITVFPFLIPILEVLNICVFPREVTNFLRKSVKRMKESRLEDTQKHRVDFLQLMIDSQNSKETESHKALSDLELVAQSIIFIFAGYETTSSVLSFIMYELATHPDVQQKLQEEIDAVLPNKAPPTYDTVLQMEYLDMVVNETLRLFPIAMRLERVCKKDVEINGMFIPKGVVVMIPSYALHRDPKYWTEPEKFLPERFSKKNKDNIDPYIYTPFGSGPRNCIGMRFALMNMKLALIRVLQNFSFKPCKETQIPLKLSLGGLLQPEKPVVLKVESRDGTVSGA

Row | SMILES | IC50 (CYP3A4 [1]) [nM] | Ki (CYP3A4 [2]; [4]) [nM] | Ki (CYP3A4 [2]; [5]) [nM] | IC50 (CYP3A4 [3]) [nM]
1 | O=C(NCc1ccccc1F)c1ccccc1S(=O)(=O)Nc1cccnc1 [Example 5, N-(2-fluorobenzyl)-2-[(pyridin-3-ylamino)sulfonyl]benzamide] | 41 | 55.9 | 5.8 | 66
2 | O=C(NCc1ccc(F)cc1)c1ccccc1S(=O)(=O)Nc1cccnc1 [Example 9, N-(4-fluorobenzyl)-2-[(pyridin-3-ylamino)sulfonyl]benzamide] | 11 | 173 | 4 | 9
3 | O=C(NCc1ccccc1)c1ccccc1S(=O)(=O)Nc1cccnc1 [Example 12, N benzyl-2-[(pyridin-3-ylamino)sulfonyl]benzamide] | 31 | 270 | 10.5 | 29
4 | COc1cncc(NS(=O)(=O)c2ccccc2C(=O)N2CCCCC2)c1 [Example 16, N-(5-methoxypyridin-3-yl)-2-(piperidin-1-ylcarbonyl)benzenesulfonamide] | 65 | 433 | – | 117
5 | CCCCNC(=O)c1ccccc1S(=O)(=O)Nc1cncc(OC)c1 [Example 17, N-butyl-2-{[(5-methoxypyridin-3-yl)amino]sulfonyl}benzamide] | 26 | 133 | – | 62
6 | COc1ccncc1NS(=O)(=O)c1ccccc1C(=O)N1CCCCC1 [Example 18, N-(4-methoxypyridin-3-yl)-2-(piperidin-1-ylcarbonyl)benzenesulfonamide] | 146 | 570 | – | 349
7 | CCCCNC(=O)c1ccccc1S(=O)(=O)Nc1cnccc1OC [Example 19, N-butyl-2-{[(4-methoxypyridin-3-yl)amino]sulfonyl}benzamide] | 69 | 329 | – | 169
8 | N#Cc1cncc(NS(=O)(=O)c2ccccc2C(=O)N2CCCCC2)c1 [Example 22, N-(5-cyanopyridin-3-yl)-2-(piperidin-1-ylcarbonyl)benzenesulfonamide] | > 750 | > 1000 | – | > 750
9 | CCCCNC(=O)c1ccccc1S(=O)(=O)Nc1cncc(C#N)c1 [Example 24, N-butyl-2-{[(5-cyanopyridin-3-yl)amino]sulfonyl}benzamide] | 567 | > 1000 | – | > 750
10 | CC(C)(CN1CCOCC1)NC(=O)c1ccccc1[S+]([O-])Cc1cccnc1 (centres unmarked) [Example 70, N-(1,1-dimethyl-2-morpholin-4-ylethyl)-2-[(pyridin-3-ylmethyl)sulfinyl]benzamide] | – | 800 | – | 421
11 | Cc1cncc(NS(=O)(=O)c2ccccc2C(=O)N(C)Cc2ccc(C(F)(F)F)cc2)c1 [Example 145, N-methyl-2-{[(5-methylpyridin-3-yl)amino]sulfonyl}-N-[4-(trifluoromethyl)benzyl]benzamide] | 18 | 43.9 | 5.9 | –
12 | Cc1cncc(NS(=O)(=O)c2ccccc2C(=O)N(C)Cc2ccc(F)cc2)c1 [Example 146, N-(4-fluorobenzyl)-N-methyl-2-{[(5-methylpyridin-3-yl)amino]sulfonyl}benzamide] | 11 | 54.6 | 8.6 | –
13 | COc1cncc(NS(=O)(=O)c2ccccc2C(=O)NCc2cc(F)ccc2F)c1 [Example 147, N-(2,5-difluorobenzyl)-2-{[(5-methoxypyridin-3-yl)amino]sulfonyl}benzamide] | 16 | 209 | 19.2 | –

Now from value to molecule:

Row | IC50 (CYP3A4 [1]) [nM] | Ki (CYP3A4 [2]; [4]) [nM] | Ki (CYP3A4 [2]; [5]) [nM] | IC50 (CYP3A4 [3]) [nM] | SMILES
14 | 390 | 538 | 662 | < 3 | CC1CCN(CC(C)(C)NC(=O)c2ccccc2S(=O)(=O)Nc2cccnc2)CC1 [Example 1, N-[1,1-dimethyl-2-(4-methylpiperidin-1-yl)ethyl]-2-[(pyridin-3-ylamino)sulfonyl]benzamide]
15 | > 750 | 901 | 570 | > 750 | CC(C)(CN1CCCCC1)NC(=O)c1ccccc1S(=O)(=O)Nc1cccnc1 [Example 2, N-(1,1-dimethyl-2 piperidin-1-ylethyl)-2-[(pyridin-3-ylamino)sulfonyl]benzamide]
16 | > 750 | 858 | > 1000 | > 750 | CC(C)(CN1CCCC1)NC(=O)c1ccccc1S(=O)(=O)Nc1cccnc1 [Example 3]
17 | 52 | 167 | 43.6 | 96 | CC(C)(NC(=O)c1ccccc1S(=O)(=O)Nc1cccnc1)C1CC1 [Example 4, N-(1-cyclopropyl-1-methylethyl)-2-[(pyridin-3-ylamino)sulfonyl]benzamide]
18 | > 750 | > 1000 | > 1000 | > 750 | O=C(c1ccccc1S(=O)(=O)Nc1cccnc1)N1CC2(CCNCC2)C1 [Example 7, 2-(2,7-diazaspiro[3.5]non-2-ylcarbonyl)-N-pyridin-3-ylbenzenesulfonamide]
19 | 63 | 460 | 44.6 | 67 | O=C(NC1CCCCC1)c1ccccc1S(=O)(=O)Nc1cccnc1 [Example 8, N-cyclohexyl-2-[(pyridin-3-ylamino)sulfonyl]benzamide]
20 | 279 | > 1000 | 558 | > 750 | CC(C)(C)OC(=O)N1CC2(CCN(C(=O)c3ccccc3S(=O)(=O)Nc3cccnc3)CC2)C1 [Example 10, tert-butyl 7-{2-[(pyridin-3-ylamino)sulfonyl]benzoyl}-2,7-diazaspiro[3.5]nonane-2-carboxylate]
21 | > 750 | > 1000 | 563 | > 750 | CC(C)(C)OC(=O)N1CCC2(CC1)CN(C(=O)c1ccccc1S(=O)(=O)Nc1cccnc1)C2 [Example 11, tert-butyl 2-{2-[(pyridin-3-ylamino)sulfonyl]benzoyl}-2,7-diazaspiro[3.5]nonane-7-carboxylate]
22 | – | 251 | – | 24 | O=C(c1ccccc1S(=O)(=O)Nc1cccnc1)N1CCN(c2ccc(F)cc2)CC1 [Example 13, 2-{[4-(4-fluorophenyl)piperazin-1-yl]carbonyl}-N-pyridin-3-ylbenzenesulfonamide]
23 | – | 503 | – | 60 | CC(C)(C)NC(=O)c1ccccc1S(=O)(=O)Nc1cccnc1 [Example 14, N-(tert-butyl)-2-[(pyridin-3-ylamino)sulfonyl]benzamide]
24 | 379 | > 1000 | – | 445 | O=C(c1ccccc1S(=O)(=O)Nc1cccnc1)N1CCCC1 [Example 20, N-pyridin-3-yl-2-(pyrrolidin-1-ylcarbonyl)benzenesulfonamide]
25 | > 750 | > 1000 | – | > 750 | O=C(c1ccccc1S(=O)(=O)Nc1cccnc1)N1CCOCC1 [Example 21, 2-(morpholin-4-ylcarbonyl)-N-pyridin-3-ylbenzenesulfonamide]
26 | 103 | > 1000 | 280 | 325 | O=C(NC1(CO)CCCC1)c1ccccc1S(=O)(=O)Nc1cccnc1 [Example 23, N-[1-(hydroxymethyl)cyclo-pentyl]-2-[(pyridin-3-ylamino)sulfonyl]benzamide]
27 | 413 | – | – | > 750 | CC(C)(CNC(=O)c1ccccc1S(=O)(=O)Nc1cccnc1)N1CCOCC1 [Example 32, N-(2-methyl-2-morpholin-4-ylpropyl)-2-[(pyridin-3-ylamino)sulfonyl]benzamide]

Reference: patent US7868026B2, “Therapeutic compounds” (Pfizer Inc., priority 2005, dated 2011)
